Values after ≈ are worked out from the molar mass of the structure shown. Where two headings read alike, the source gives them in different places.
How the values were obtained:
[1] = Solubility in dosing vehicles; type: physicochemical
Description: (§1) Based on solubility, corn oil (Welsh, Holme & Clark Inc., Newark, NJ, USA) was used as the vehicle for all four PFASs. Gas chromatography (GC) with flame ionization detection (FID) was used for the analysis of the PFNAC, PFHI, and MHFPK formulations, and a high-performance liquid chromatography (HPLC) method with ultraviolet spectroscopy was used for the CTFPA formulation. The details of the dosing solution analytical conditions are summarized in supplemental Tables S1 and S2. These analytical methods were developed specifically for these subchronic toxicity studies. […] Dosing solutions were prepared and replaced between at least every 29 days and no more than every 39 days.
(§2) PFNAC, PFHI, and MHFPK were soluble in corn oil up to 67, 200, and 100 mg/mL, respectively. As solubility in aqueous vehicles was 40 mg/mL or less for all three chemicals, corn oil was chosen as the vehicle. PFNAC was stable at the ambient temperature for 51 days at target concentrations of 0.2 and 10 mg/mL PFHI was stable in corn oil at ambient temperatures and target concentrations of 1 and 80 mg/mL for up to 70 days. MFHPK was stable in corn oil at room temperature for up to 44 days at target concentrations of 5 and 100 mg/mL. CTFPA was soluble in both deionized (DI) water and corn oil at 200 mg/mL when stored refrigerated overnight. […] Thus, corn oil was chosen as the vehicle for CTFPA. The stability of the CTFPA in the corn oil was evaluated for 8, 13, 15, 23, 35, and 42 days stored refrigerated in plastic bottles. CTFPA at 40 mg/mL was stable for up to 42 days. CTFPA at 0.6 mg/mL was stable for up to […] when refrigerated in plastic bottles but by 42 days had decreased to approximately 81%.

[2] = Parent chemical in rat plasma, 14-day study; type: in vivo; conditions: for concentration at 15 day: Sprague-Dawley, rat, plasma, oral; for Percentage of the dose in the plasma: 14 days
Protocol: Dose-range-finding (14-day) studies were conducted using male and female rats to establish dose levels for 90-day studies and identify potential target organ toxicities. Male and female rats (n = 5 sex/group, a control and three dose groups, corn oil vehicle dose volume of 5 mL/kg) were administered PFASs by oral gavage daily for 14 days and euthanized on study day (SD) 15. The dose levels for PFHI, CTFPA, and MHFPK were 0, 30, 100, and 300 mg/kg-day. The dose levels for PFNAC were 0, 10, 30, and 100 mg/kg-day. The in vivo data collected included BW, BWCs, FC, cage-side observations, and physical exams. Gross necropsies, relative and absolute organ weights, and clinical chemistry data were collected for all the groups. Macroscopic and microscopic pathology examinations were conducted for the control and high-dose groups initially; the other groups were examined if justified by experimental findings. Plasma samples were analyzed ~2 h post dosing on day 1 and at day 15 for the parent PFAS chemical.
On SD 1 of the 14-day study (~2 h post dosing), 0.2 mL of blood was collected via tail vein puncture in tubes containing K3EDTA and stored on wet ice. Prior to the scheduled euthanasia, blood (~1 mL) was collected from the jugular vein in tubes containing K3EDTA and stored on wet ice on SD 15, for the 14-day study, and SD 91, for the 90-day study. All the tubes were centrifuged at an ~1500 relative centrifugal force within 1 h of collection for 15 min at 5 ± 3 °C. The plasma was stored at −75 ± 15 °C until the analysis. PFNAC and PFHI were analyzed using a headspace GC–mass spectrometry (MS) method, as summarized in Table S3, and CTFPA was analyzed using an ultra-HPLC-MS method, as summarized in Table S4. The MHFPK samples were not analyzed because a method suitable for plasma was not available. The details concerning the preparation of the samples, method blanks, and matrix and QC standards for the analysis are available in the appendices to the study reports.

[3] = Stability of dosing formulations in corn oil; type: physicochemical
Description: as §1, §2

[4] = male, Day 1 (2 hours post dosing), 30 mg/kg-day
[5] = male, Day 1 (2 hours post dosing), 100 mg/kg-day
[6] = male, Day 1 (2 hours post dosing), 300 mg/kg-day
[7] = corn oil, oil or lipid, read-out: Solubility in corn oil

SMILES | concentration at 15 day ([2]; female, Day 15, 300 mg/kg-day) [ng/mL] | concentration at 15 day ([2]; male, Day 15, 100 mg/kg-day) [ng/mL] | concentration at 15 day ([2]; male, Day 15, 300 mg/kg-day) [ng/mL] | Parent chemical in plasma ([2]; female, Day 1, 30 mg/kg-day) | Parent chemical in plasma ([2]; female, Day 1, 100 mg/kg-day) | Parent chemical in plasma ([2]; female, Day 1, 300 mg/kg-day) | Parent chemical in plasma [2, 4] | Parent chemical in plasma [2, 5] | Parent chemical in plasma [2, 6] | solubility [1, 7] [mg/mL] | Parent chemical in plasma ([2]; female, Day 15, 100 mg/kg-day) | further results
O=C(O)C(F)(Cl)C(F)(F)F (stereo not shown) [CTFPA, 2-Chloro-2,3,3,3-tetrafluoropropanoic acid] | 123000 | 99100 | 120000 | 46,700 ± 10,000 ng/mL | 107,000 ± 30,400 ng/mL | 297,000 ± 56,500 ng/mL | 48,400 ± 8430 ng/mL | 122,000 ± 43,800 ng/mL | 321,000 ± 60,600 ng/mL |  |  | pH of the DI water solution ([1]; DI water solution): < 1; solubility ([1]; corn oil, stored refrigerated overnight, read-out: Solubility in corn oil): 200 mg/mL (≈ 1110 mM); solubility ([1]; deionized water, stored refrigerated overnight, read-out: Solubility in deionized (DI) water): 200 mg/mL (≈ 1110 mM); concentration at 15 day ([2]; female, Day 15, 30 mg/kg-day): 27200 ng/mL; concentration at 15 day ([2]; female, Day 15, 100 mg/kg-day): 45400 ng/mL; concentration at 15 day ([2]; male, Day 15, 30 mg/kg-day): 49800 ng/mL; Percentage of the dose in the plasma ([2]; female, 100 mg/kg-day): 1.75 ± 0.67%; Percentage of the dose in the plasma ([2]; male, 30 mg/kg-day): 6.39 ± 2.03%; Concentration remaining in corn oil ([3]; 0.6 mg/mL, by 42 days, refrigerated): approximately 81%; Stable in corn oil for ([3]; 0.6 mg/mL, refrigerated in plastic bottles): up to 22 days; Stable in corn oil for ([3]; 40 mg/mL, refrigerated in plastic bottles): up to 42 days
C=CC(=O)OCC(F)(F)C(F)(F)C(F)(F)C(F)(F)C(F)(F)C(F)(F)C(F)(F)C(F)F [PFNAC, 1H,1H,9H-Perfluorononyl acrylate] |  |  |  |  | Parent chemical not detected at the highest dose |  |  | Parent chemical not detected at the highest dose |  | ≤ 67 | Parent chemical not detected at the highest dose | Parent chemical in plasma ([2]; male, Day 15, 100 mg/kg-day): Parent chemical not detected at the highest dose; Stable in corn oil for ([3]; ambient temperature, 0.2 and 10 mg/mL): 51 days
CC(=O)C(F)(F)C(F)(F)C(F)(F)F [MHFPK, Methyl heptafluoropropyl ketone] |  |  |  |  |  |  |  |  |  | ≤ 100 |  | Stable in corn oil for ([3]; room temperature, 5 and 100 mg/mL): up to 44 days
FC(F)(F)C(F)(F)C(F)(F)C(F)(F)CCI [PFHI, 1H,1H,2H,2H-Perfluorohexyl iodide] | 14.3 ± 7.12 | 4.87 ± 1.93 | 26.7 ± 8.79 | 14.7 ± 8.21 ng/mL | 470 ± 427 ng/mL | 1070 ± 689 ng/mL | 159 ± 79.3 ng/mL | 333 ± 147 ng/mL | 2040 ± 1250 ng/mL | ≤ 200 | ≤LOQ | Lower plasma concentration for SD 15 compared to SD 1 ([2]; 14-day study): 10- to 100 fold; Parent chemical in plasma ([2]; female, Day 15, 30 mg/kg-day): ND/BLOD; Parent chemical in plasma ([2]; male, Day 15, 30 mg/kg-day): <BLOD/≤LOQ; Stable in corn oil for ([3]; ambient temperatures, 1 and 80 mg/mL): up to 70 days

— paper PMC12298827, “Subchronic Toxicities of Four Per- and Polyfluoroalkyl Substances (PFASs) by Oral Exposure in Sprague–Dawley Rats” (Toxics, 2025)
